Consider 9 compounds from PubChem BioAssay (NCI).

Test systems include SNB-19 CNS; HS 578T breast; MCF7 breast; SN12C renal; NCI-H522 lung; BT-549 breast; MDA-MB-231 breast; K-562 leukemia; TK-10 renal; A549 NSCLC.
What all share (assay): NCI tumour cell line growth inhibition, 48 h

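Cells were grown in 96-well plates and exposed to each compound for 48 hours at five concentrations; endpoints were interpolated linearly between bracketing concentrations, or set to the highest concentration if not reached. Here, GI50 denotes the concentration required for 50% inhibition of growth. TGI denotes the concentration required for complete inhibition of growth.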 Some results are limits rather than exact numbers.

Consider `NC(=O)/C=C/NC(=O)/C=N\O`, for which the TGI with SNB-19 CNS, with HS 578T breast, in the assay with MCF7 breast, with SN12C renal, in the assay on NCI-H522 lung and with BT-549 breast was greater than 100 µM in each case. Also, the TGI in the assay with MDA-MB-231 breast and with K-562 leukemia was greater than 100 µM each time.
For the compound `O=C(O)C1(Cc2cccc(Nc3nccs3)n2)CCC(Oc2cccc(Cl)c2F)CC1` (stereo not drawn), the GI50 is 20 µM with SNB-19 CNS; 10.4 µM in the assay with HS 578T breast; 0.329 µM in the assay with MCF7 breast; 11.4 µM with SN12C renal; 14.6 µM in the assay on BT-549 breast; 18.8 µM with TK-10 renal. Moreover, the results for the GI50 in the assay on MDA-MB-231 breast, in the assay on K-562 leukemia and in the assay on A549 NSCLC were 14.7 µM, 0.468 µM and 5.8 µM, respectively. The TGI in the assay on SNB-19 CNS was determined as 73.9 µM; in the assay on HS 578T breast, 64 µM; in the assay with MCF7 breast, 50.5 µM; in the assay on SN12C renal, 46.6 µM; in the assay on BT-549 breast, 32.1 µM; with TK-10 renal, 61.9 µM. In addition, the TGI with MDA-MB-231 breast is 41.6 µM; with K-562 leukemia it was greater than 56.5 µM; in the assay with A549 NSCLC it was greater than 60 µM.
`CC/C(C)=C1\OC(=O)C(C)C(O)C(Cc2cccnc2)NC(=O)C(NC(=O)c2ncccc2O)C(C)OC1=O` (stereo not drawn): the TGI in the assay on SNB-19 CNS, in the assay on HS 578T breast, in the assay with MCF7 breast, in the assay on SN12C renal, in the assay on BT-549 breast and with TK-10 renal was greater than 100 µM in each case. Also, the TGI in the assay with MDA-MB-231 breast, with K-562 leukemia and in the assay with A549 NSCLC was greater than 100 µM each time.
Take `Nc1nnc(Cn2c(-c3ccccc3)nc3ccc(Br)cc3c2=O)s1`: the GI50 is greater than 100 µM in the assay on SNB-19 CNS; 41.4 µM with HS 578T breast; greater than 100 µM in the assay on MCF7 breast; 18.1 µM with SN12C renal; 38.1 µM with NCI-H522 lung; 58.3 µM with BT-549 breast. Moreover, the GI50 with TK-10 renal is 32 µM; with MDA-MB-231 breast, 36.2 µM; with A549 NSCLC, 25 µM. Further, the TGI with SNB-19 CNS was greater than 100 µM; with HS 578T breast, greater than 100 µM; with MCF7 breast it was greater than 100 µM; in the assay with SN12C renal, 77.6 µM; in the assay with NCI-H522 lung it was greater than 100 µM; in the assay on BT-549 breast, greater than 100 µM. Also, the results for the TGI with TK-10 renal, in the assay with MDA-MB-231 breast and in the assay on A549 NSCLC were 83.9 µM, greater than 100 µM and greater than 100 µM, respectively.
As for `CC(=O)[O][Hg][c]1ccccc1`, the GI50 with SNB-19 CNS was 1.46 µM; with HS 578T breast, 0.289 µM; in the assay with MCF7 breast it was 0.197 µM; in the assay with SN12C renal, 0.234 µM; in the assay with NCI-H522 lung, 0.138 µM; with BT-549 breast, 0.453 µM. Further, the results for the GI50 in the assay with TK-10 renal, with MDA-MB-231 breast and in the assay on K-562 leukemia were 0.512 µM, 0.732 µM and 0.294 µM, respectively. For the same compound, the TGI with SNB-19 CNS stood at 3.05 µM; in the assay on HS 578T breast, 1.67 µM; with MCF7 breast, 0.684 µM; with SN12C renal, 0.644 µM; in the assay with NCI-H522 lung it was 0.292 µM; in the assay with BT-549 breast, 1.66 µM. Moreover, the TGI stood at 1.36 µM in the assay with TK-10 renal, 2.09 µM in the assay on MDA-MB-231 breast and 1.31 µM with K-562 leukemia.
Consider `CCC1CCc2nc3sc(C(=O)Nc4ccccc4C)c(N)c3cc2C1` (stereo not drawn), for which the GI50 in the assay with SNB-19 CNS was 0.911 µM; with HS 578T breast, 0.514 µM; in the assay with MCF7 breast, 0.287 µM; in the assay with SN12C renal, 8.37 µM; in the assay on NCI-H522 lung it was 0.775 µM; with BT-549 breast it was 0.558 µM. For the same compound, the results for the GI50 in the assay on TK-10 renal, in the assay on MDA-MB-231 breast and in the assay on A549 NSCLC were 0.833 µM, greater than 100 µM and 0.616 µM, respectively. Also, the TGI with SNB-19 CNS, in the assay with HS 578T breast, in the assay with MCF7 breast, in the assay with SN12C renal, with NCI-H522 lung and in the assay on BT-549 breast was greater than 100 µM each time. Also, the TGI with TK-10 renal, in the assay with MDA-MB-231 breast and with A549 NSCLC was greater than 100 µM in each case.
Take `CCCCC#CC#Cc1cccc(=O)o1`: the GI50 with SNB-19 CNS was 12.6 µM; in the assay on HS 578T breast, 25.9 µM; in the assay on MCF7 breast, 26.1 µM; with SN12C renal, 15.1 µM; in the assay with NCI-H522 lung it was 23.2 µM; in the assay on BT-549 breast, 20.3 µM. Moreover, the GI50 with TK-10 renal was 14.3 µM; with MDA-MB-231 breast, 19.5 µM; with A549 NSCLC it was 39.2 µM. The TGI is 27.7 µM with SNB-19 CNS; 51.6 µM with HS 578T breast; greater than 100 µM with MCF7 breast; 38.8 µM in the assay on SN12C renal; 52.1 µM with NCI-H522 lung; 46.9 µM in the assay on BT-549 breast. For the same compound, the TGI with TK-10 renal is 28.3 µM; with MDA-MB-231 breast it was 43.2 µM; with A549 NSCLC, greater than 100 µM.
Regarding `Cc1cc(C)nc(SC2=C(Nc3cccc(Cl)c3C)C(=O)N(Cc3ccccc3)C2=O)n1`, the GI50 with SNB-19 CNS, with HS 578T breast, in the assay on MCF7 breast, with NCI-H522 lung, in the assay with BT-549 breast and in the assay on TK-10 renal was greater than 160 µM throughout. For the same compound, the GI50 with MDA-MB-231 breast, in the assay on K-562 leukemia and in the assay with A549 NSCLC was greater than 160 µM throughout. Further, the TGI in the assay on SNB-19 CNS, with HS 578T breast, in the assay on MCF7 breast, in the assay with NCI-H522 lung, with BT-549 breast and in the assay on TK-10 renal was greater than 160 µM throughout. Besides, the TGI in the assay on MDA-MB-231 breast, with K-562 leukemia and in the assay with A549 NSCLC was greater than 160 µM in each case.
Regarding `C=C1C(=O)O[C@H]2[C@H]1CC/C(COC(=O)c1ccc(C#N)cc1)=C\CC[C@@]1(C)O[C@@H]21`, the GI50 in the assay with SNB-19 CNS is 3.9 µM; in the assay with HS 578T breast, 3.04 µM; with SN12C renal it was 2.22 µM; in the assay with NCI-H522 lung, 1.55 µM; in the assay with BT-549 breast, 1.44 µM; with TK-10 renal, 3.99 µM. In addition, the GI50 is 2.2 µM in the assay on MDA-MB-231 breast, 1.94 µM with K-562 leukemia and 6 µM in the assay with A549 NSCLC. Further, the TGI is 15.1 µM in the assay with SNB-19 CNS; 15.9 µM with HS 578T breast; 5.75 µM in the assay with SN12C renal; 3.35 µM in the assay on NCI-H522 lung; 3.15 µM with BT-549 breast; 10.8 µM in the assay with TK-10 renal. Moreover, the TGI worked out at 5.24 µM in the assay on MDA-MB-231 breast, 13 µM with K-562 leukemia and 20.5 µM with A549 NSCLC.
